“And” between values parts separate entries of the source, which are not always exact repeats. Equal values may be shown once.
Experiments:
[1] = "writhing syndrome" test for analgesic activity (phenyl p-quinone); type: in vivo, male Swiss albino mice; settings: control approximately 30 per pair, active if 18 or less
Description: This method is based upon the reduction of the number of writhes following the intraperitoneal injection of one mg./kg. of body weight of phenyl p-quinone in male Swiss albino mice weighing 15-25 g. The syndrome is characterized by intermittent contractions of the abdomen, twisting and turning of the trunk, and extension of the hind legs beginning 3 to 5 minutes after injection of the phenyl p-quinone. The test compounds are administered orally at the indicated dose to groups of 2 mice each, 30 minutes before injection of the phenyl p-quinone.

[2] = reduction of spontaneous motor activity (Animax Activity Counter); type: in vivo; settings: Rattus norvegicus, 5 min; oral, rats, 5 minute period; read-out: MDD50 (effective dose that causes a 50% reduction in motor activity)
Description: A useful test for anti-psychotic activity consists of measuring the reduction of spontaneous motor activity in animals.
Groups of 4 rats are treated orally with the test compound dissolved or suspended in starch vehicle at the maximum tolerated dose. At the estimated time of peak effect, the animals are placed singly into an Animax Activity Counter and the activity of each rat is recorded over a 5 minute period. The activity counts are compared to historical or parallel control values to determine significant increased or decreased locomotor activity.

[3] = Discrete Trial Conditioned Avoidance Test; type: in vivo, male Long-Evans rats; settings: Rattus norvegicus, read-out: ED50 (reduces avoidance response by 50% as compared to controls)
Description: In this test the compounds are administered orally to male Long-Evans rats in a universal starch vehicle. The rats have been pre-conditioned to make a 70% avoidance response. The rats are placed in individual cages and a warning tone is sounded every 20 seconds. Each rat has the opportunity to press a bar which, if done within 5 seconds, prevents an electric shock through the grid floor of the cage and is termed an avoidance response. Each rat is given 50 trials and a score of avoidance responses is kept. The drug is administered at various dose levels. […]

[4] = Inhibition of tetrabenazine induced depression of exploratory behavior in mice; type: in vivo; settings: for Number Responded/Number Treated: intraperitoneally or orally, 1 h before tetrabenazine 30 mg/kg
Description: Varying doses of the test compounds are administered intraperitoneally or orally to 5 mice one hour before the administration of tetrabenazine hexamate at an intraperitoneal dose of 30 mg/kg which is known to depress markedly the exploratory behavior of normal mice. Thirty minutes later the mice are tested for their exploratoy behavior. Individual mice are placed in the center of a horizontal disc. Inhibition of the depression induced by tetrabenazine is considered present if the mice perform one or more of the following actions within 10 seconds after being placed on the disc:
(1) Animals move to the edge of the disc and pear over the side.
(2) Animals move 180° in place.
(3) Animals display a head movement of 90° immediately followed by a head movement in the opposite direction of at least 45°.
Administration of the test compounds to additional groups of 5 mice is repeated, the numbers of individual animals showing an anti-depressant response (normal exploratory behavior) is recorded and the results are analyzed by the following scheme (statistically standardized; significant P = less than 0.05).
The results from several dose levels (acceptance in at least two sequential test procedures) are then used to establish the Range of Active Doses.

[5] = Prevention of reserpine-induced hypothermia in rats; type: in vivo; settings: for ED50: Rattus norvegicus, oral, dose column in mg/kg, read-out: ED50 (95% C.L.)
Description: Groups of 5 rats were treated orally with graded doses of the test compounds. One hour later the animals were treated with reserpine (solubilized in propylene glycol and citric acid) at a dose of 5 mg/kg intraperitoneally. Rectal temperatures were measured using a YSI Telethermometer. Temperatures were recorded just prior to treatment, one hour later just prior to reserpine administration and at hourly intervals following reserpine administration for 5 hours. […]

[6] = Enhancement of yohimbine lethality in mice; type: in vivo; settings: yohimbine 34 mg/kg
Description: The test compounds were administered intraperitoneally, at various dose levels, to groups of 10 mice. One hour later all mice received yohimbine at a dose (34 mg/kg) estimated to have a lethal effect in 4% of the mice. Deaths were recorded 18 to 24 hours later.

[7] = modified Randall and Selitto analgesic test, brewers yeast inflamed paw; type: in vivo, rats; settings: 200 mg/Kg oral; two hours after yeast; active if T/C ≥ 1.37
Description: To determine analgesic activity, a modification of the method of Randall and Selitto [Arch. Int. […] This test measures the pain threshold of rats whose paws are made sensitive to pressure by the injection of 0.1 ml. of a 20% aqueous suspension of brewers yeast into the plantar surface of the left hind paw. Constantly increasing force (16 g/second) is applied to the swollen paw using an Analgesy Meter, Ugo Basile. The pressure is cut off at 250 g. of force when there is no response (sudden struggle or vocalization). […] Pressure-pain thresholds are always recorded two hours after administration of Brewers' yeast. Test compounds are administered at the same time as the yeast, at an oral dose of 200 mg/Kg. Ratios of treated (T)/control (C) reaction thresholds are calculated as estimates of analgesic efficacy (degree of analgesia obtainable).

[8] = reversible ptosis test; type: in vivo; settings: oral, rats
Description: A useful test for anti-psychotic activity consists of measuring ptosis in animals.
Ptosis is defined as closure of the palpebral aperture (eyelid) greater than 70%. The compounds to be tested were administered orally to groups of 10 rats each. Periodically after treatment the rats were gently placed on the cage top and examined for 90 seconds for signs of ptosis. This manipulation eliminates spontaneous ptosis. The rats were then dropped from a height of about 18 inches (exteroceptive stimulation) onto the cage top to test for reversibility of ptosis. Reversible ptosis is defined as less than 70% closure of the palpebral aperture for longer than one minute after the exteroceptive stimulation and is indicative of neuroleptic activity of the drug administered.

Compound: CN1CCN(C2=Nc3ccccc3N(C)c3cscc32)CC1 [4-Methyl-10-(4-methyl-1-piperazinyl)-4H-thieno[3,4-b][1,5]benzodiazepine]
- No. of Writhes Per Pair ([1]; 50 mg/kg oral): 0
- ED50 [2]: 12 mg/kg
- ED50 ([3]; oral, male Long-Evans rats): 17 mg/kg
- Number Responded/Number Treated ([4]; 0.78 mg/kg): 1/10
- Number Responded/Number Treated ([4]; 1.56 mg/kg): 3/10
- Number Responded/Number Treated ([4]; 3.13 mg/kg): 6/10
- Number Responded/Number Treated ([4]; 6.25 mg/kg): 6/10
- Number Responded/Number Treated ([4]; 12.5 mg/kg): 7/10
- Number Responded/Number Treated ([4]; 25.0 mg/kg): 8/10
- ED50 ([4]; Mus musculus, calculated by method of Finney, dose column in mg/kg, read-out: ED50 (95% C.L.)): 4.2 mg/kg
- Percent of Animals Showing > Two Standard Deviations in Rectal Temperature Over Control Means ([5]; 0.20 mg/kg oral, 2 hours after reserpine): 0%
- Percent of Animals Showing > Two Standard Deviations in Rectal Temperature Over Control Means ([5]; 0.20 mg/kg oral, 3 hours after reserpine): 0%
- Percent of Animals Showing > Two Standard Deviations in Rectal Temperature Over Control Means ([5]; 0.20 mg/kg oral, 4 hours after reserpine): 0%
- Percent of Animals Showing > Two Standard Deviations in Rectal Temperature Over Control Means ([5]; 0.20 mg/kg oral, 5 hours after reserpine): 0%
- Percent of Animals Showing > Two Standard Deviations in Rectal Temperature Over Control Means ([5]; 0.39 mg/kg oral, 2 hours after reserpine): 0%
- Percent of Animals Showing > Two Standard Deviations in Rectal Temperature Over Control Means ([5]; 0.39 mg/kg oral, 3 hours after reserpine): 0%
- Percent of Animals Showing > Two Standard Deviations in Rectal Temperature Over Control Means ([5]; 0.39 mg/kg oral, 4 hours after reserpine): 0%
- Percent of Animals Showing > Two Standard Deviations in Rectal Temperature Over Control Means ([5]; 0.39 mg/kg oral, 5 hours after reserpine): 0%
- Percent of Animals Showing > Two Standard Deviations in Rectal Temperature Over Control Means ([5]; 0.78 mg/kg oral, 2 hours after reserpine): 33%
- Percent of Animals Showing > Two Standard Deviations in Rectal Temperature Over Control Means ([5]; 0.78 mg/kg oral, 3 hours after reserpine): 7%
- Percent of Animals Showing > Two Standard Deviations in Rectal Temperature Over Control Means ([5]; 0.78 mg/kg oral, 4 hours after reserpine): 7%
- Percent of Animals Showing > Two Standard Deviations in Rectal Temperature Over Control Means ([5]; 0.78 mg/kg oral, 5 hours after reserpine): 27%
- Percent of Animals Showing > Two Standard Deviations in Rectal Temperature Over Control Means ([5]; 1.56 mg/kg oral, 2 hours after reserpine): 100%
- Percent of Animals Showing > Two Standard Deviations in Rectal Temperature Over Control Means ([5]; 1.56 mg/kg oral, 3 hours after reserpine): 40%
- Percent of Animals Showing > Two Standard Deviations in Rectal Temperature Over Control Means ([5]; 1.56 mg/kg oral, 4 hours after reserpine): 0%
- Percent of Animals Showing > Two Standard Deviations in Rectal Temperature Over Control Means ([5]; 1.56 mg/kg oral, 5 hours after reserpine): 60%
- Percent of Animals Showing > Two Standard Deviations in Rectal Temperature Over Control Means ([5]; 3.13 mg/kg oral, 2 hours after reserpine): 50%
- Percent of Animals Showing > Two Standard Deviations in Rectal Temperature Over Control Means ([5]; 3.13 mg/kg oral, 3 hours after reserpine): 30%
- Percent of Animals Showing > Two Standard Deviations in Rectal Temperature Over Control Means ([5]; 3.13 mg/kg oral, 4 hours after reserpine): 30%
- Percent of Animals Showing > Two Standard Deviations in Rectal Temperature Over Control Means ([5]; 3.13 mg/kg oral, 5 hours after reserpine): 20%
- Percent of Animals Showing > Two Standard Deviations in Rectal Temperature Over Control Means ([5]; 6.25 mg/kg oral, 2 hours after reserpine): 80%
- Percent of Animals Showing > Two Standard Deviations in Rectal Temperature Over Control Means ([5]; 6.25 mg/kg oral, 3 hours after reserpine): 80%
- Percent of Animals Showing > Two Standard Deviations in Rectal Temperature Over Control Means ([5]; 6.25 mg/kg oral, 4 hours after reserpine): 80%
- Percent of Animals Showing > Two Standard Deviations in Rectal Temperature Over Control Means ([5]; 6.25 mg/kg oral, 5 hours after reserpine): 0%
- Percent of Animals Showing > Two Standard Deviations in Rectal Temperature Over Control Means ([5]; 12.5 mg/kg oral, 2 hours after reserpine): 100%
- Percent of Animals Showing > Two Standard Deviations in Rectal Temperature Over Control Means ([5]; 12.5 mg/kg oral, 3 hours after reserpine): 100%
- Percent of Animals Showing > Two Standard Deviations in Rectal Temperature Over Control Means ([5]; 12.5 mg/kg oral, 4 hours after reserpine): 100%
- Percent of Animals Showing > Two Standard Deviations in Rectal Temperature Over Control Means ([5]; 12.5 mg/kg oral, 5 hours after reserpine): 20%
- ED50 ([5]; 2 hours after reserpine): 1.6 mg/kg
- ED50 ([5]; 3 hours after reserpine): 2.9 mg/kg
- ED50 ([5]; 4 hours after reserpine): 3.5 mg/kg
- Number Dead/Number Treated ([6]; 10 mg/kg intraperitoneal, 18 hours): 3/10
- Number Dead/Number Treated ([6]; 10 mg/kg intraperitoneal, 24 hours): 8.10
- Number Dead/Number Treated ([6]; 20 mg/kg intraperitoneal, 18 hours): 6/10
- Number Dead/Number Treated ([6]; 20 mg/kg intraperitoneal, 24 hours): 8/10
- Number Dead/Number Treated ([6]; 40 mg/kg intraperitoneal, 18 hours): 4/10
- Number Dead/Number Treated ([6]; 40 mg/kg intraperitoneal, 24 hours): 8/10

Compound: CN1CCN(C2=Nc3cc(Cl)ccc3N(C)c3cscc32)CC1.[O-][Cl+3]([O-])([O-])O.[O-][Cl+3]([O-])([O-])O [7-Chloro-4-methyl-10-(4-methyl-1-piperazinyl)-4H-thieno[3,4-b][1,5]benzodiazepine diperchlorate]
- Ratio T/C (treated/control reaction thresholds) [7]: 1.55
- ED50 [2]: 25 mg/kg

Compound: CN1CCN(C2=Nc3cc(Cl)ccc3Nc3cscc32)CC1.[O-][Cl+3]([O-])([O-])O.[O-][Cl+3]([O-])([O-])O [7-Chloro-10-(4-methyl-1-piperazinyl)-4H-thieno[3,4-b][1,5]benzodiazepine diperchlorate]
- No. of Writhes Per Pair ([1]; 1.6 mg/kg oral): 1 and 2
- ED50 [2]: 20 mg/kg
- ED50 (dose estimated to create reversible ptosis in 50% of the animals) [8]: 10 mg/kg

Compound: CN1CCN(C2=Nc3ccccc3Nc3cscc32)CC1 [10-(4-Methyl-1-piperazinyl)-4H-thieno[3,4-b][1,5]benzodiazepine]
- No. of Writhes Per Pair ([1]; 6.25 mg/kg oral): 4 and 2
- Ratio T/C (treated/control reaction thresholds) [7]: 1.57
- ED50 [2]: 6.1 mg/kg
- ED50 (dose estimated to create reversible ptosis in 50% of the animals) [8]: 13 mg/kg
- ED50 ([3]; oral, male Long-Evans rats): 7 mg/kg

Compound: CN(C)CCCN1c2ccccc2Sc2ccc(Cl)cc21 [Chlorpromazine, reference compound]
- ED50 ([3]; po): 9 mg/kg
